# Results from patent US12202826B2, “N-pyridinyl acetamide derivatives as inhibitors of the Wnt signaling pathway” (Redx Pharma PLC, priority 2014, dated 2025).
# Test system: L-Wnt cells (murine Wnt-3a) / Leading Light Wnt Reporter Cells (luciferase under control of Wnt pathway response elements)
# Test: Dual-Cell β-Catenin Reporter Assay
# Assay type: cell-based, Mouse
# Details: luciferase signal reduced to 50% of DMSO control
# Procedure: Dual-Cell β-Catenin Reporter Assay
# Mouse L cells transfected to constitutively produce biologically active murine Wnt-3a, referred to as L-Wnt cells, were purchased from the American Type Culture Collection, ATCC, Manassas, VA (ATCC). These cells were cultured in DMEM supplemented with 10% FCS (Gibco/Invitrogen, Carlsbad, CA), 1% geneticin and 1% sodium pyruvate (Sigma) at 37° C. with 5% CO2. The cells were seeded into 96 well plates and treated with serial dilutions of compound diluted to 0.1% DMSO concentration. After 24 hours, cell supernatants were transferred to a 96 well plate previously seeded with Leading Light® Wnt Reporter Cells, stably transfected with a luciferase gene under control of Wnt pathway response elements. After a further 24 hours, cells are treated with One-glo luciferase assay system (Promega, Madison, WI) and the luminescent signal read by envision. The IC50 of the compound is determined as the concentration that reduces the induced luciferase signal to 50% of the DMSO control.
# The category “+” refers to compounds with an IC50 of >100 μM. The category “++” refers to compounds with an IC50 of 5 to 100 μM. The category “+++” refers to compounds with an IC50<5 μM.
Molecule,IC50 (category of IC50),IC50
O=C(Cc1cc(-c2ccnc(C(F)(F)F)c2)cs1)Nc1ccc(-c2cnccn2)cn1 [compound 23],< 5 nM,0.34 nM
COc1ccc(-c2ccc(NC(=O)Cn3cc(-c4ccnc(C(F)(F)F)c4)c(C)n3)nc2)cn1 [compound 98],5 to 100 nM,–
O=C(Cn1cnc(-c2ccnc(C(F)(F)F)c2)c1)Nc1ccc(-c2cnccn2)nc1 [compound 13],5 to 100 nM,–
Cc1cc(-c2cnn(CC(=O)Nc3ccc(N4CCN(C(=O)OC(C)(C)C)CC4)cn3)c2)ccn1 [compound 8],5 to 100 nM,–
O=C(Cn1cc(-c2ccnc(C(F)(F)F)c2)cn1)Nc1ccc(-c2cncnc2)cn1 [compound 34],< 5 nM,–
Cc1nn(CC(=O)Nc2ccc(-c3cnccn3)cn2)c(C)c1-c1ccnc(F)c1 [compound 61],< 5 nM,–
Cc1cc(-c2csc(CC(=O)Nc3ccc(-c4cnccn4)cn3)c2)ccn1 [compound 24],< 5 nM,–
O=C(Cn1cc(-c2ccnc(C(F)(F)F)c2)c(C(F)(F)F)n1)Nc1ccc(-c2cnccn2)cn1 [compound 95],< 5 nM,–
Cc1nn(CC(=O)Nc2ccc(-c3ccnc(N(C)C)c3)cn2)cc1-c1ccnc(C(F)(F)F)c1 [compound 94],5 to 100 nM,–
Cc1nn(CC(=O)Nc2ccc(-c3cncnc3)cn2)c(C)c1-c1ccc(N(C)C)nc1 [compound 102],5 to 100 nM,–
Cc1cc(-c2c(C)nn(CC(=O)Nc3ccc(-c4cnccn4)cn3)c2C)ccn1 [compound 44],< 5 nM,–
Cc1nn(CC(=O)Nc2ccc(-c3ccc(N(C)C)nc3)cn2)cc1-c1ccnc(C(F)(F)F)c1 [compound 99],< 5 nM,–
Cc1cn(CC(=O)Nc2ccc(-c3cnccn3)cn2)nc1-c1ccnc(C(F)(F)F)c1 [compound 67],< 5 nM,–
Cc1nn(CC(=O)Nc2ncc(-c3cnccn3)cc2F)c(C)c1-c1ccnc(C(F)(F)F)c1 [compound 73],5 to 100 nM,–
Cc1nn(CC(=O)Nc2ccc(-c3ccnn3C)cn2)c(C)c1-c1ccnc(C(F)(F)F)c1 [compound 55],< 5 nM,–
Cc1cc(-c2nc(C)n(CC(=O)Nc3ccc(-c4cnccn4)cn3)c2C)ccn1 [compound 86],< 5 nM,–
Cc1c(-c2ccnc(F)c2)ncn1CC(=O)Nc1ccc(-c2cnccn2)cn1 [compound 110],< 5 nM,–
Cn1nccc1-c1cnn(CC(=O)Nc2ccc(-c3cnccn3)cn2)c1 [compound 26],5 to 100 nM,–
O=C(Cn1cc(-c2ccnc(C(F)(F)F)c2)cn1)Nc1ccc(-c2cnccn2)cn1 [compound 17],< 5 nM,–
Cn1nccc1-c1cn(CC(=O)Nc2ccc(-c3cnccn3)cn2)cn1 [compound 32],> 100 nM,–
Cc1nc(-c2ccnc(C(F)(F)F)c2)cn1CC(=O)Nc1ccc(-c2cnccn2)cn1 [compound 68],< 5 nM,–
Cc1ncsc1-c1cnn(CC(=O)Nc2ccc(-c3cnccn3)cn2)c1 [compound 25],5 to 100 nM,–
Cc1nn(CC(=O)Nc2ccc(C3CCOCC3)cn2)c(C)c1-c1ccnc(C(F)(F)F)c1 [compound 69],5 to 100 nM,–
Cc1nn(CC(=O)Nc2ccc(C3=CCS(=O)(=O)CC3)cn2)c(C)c1-c1ccnc(C(F)(F)F)c1 [compound 63],5 to 100 nM,–

Molecule,IC50 (category of IC50),IC50
Cc1nn(CC(=O)Nc2ccc(-c3ccc(C#N)nc3)cn2)c(C)c1-c1ccnc(C(F)(F)F)c1 [compound 66],< 5 nM,–
Cc1nn(CC(=O)Nc2ccc(-c3cnccn3)cn2)c(C)c1-c1cn(C)nc1C(F)(F)F [compound 70],5 to 100 nM,–
Cc1nccc(-c2cnn(CC(=O)Nc3ccc(-c4cnccn4)cn3)c2)n1 [compound 38],5 to 100 nM,–
Cc1nn(CC(=O)Nc2ccc(-c3cncnc3)cn2)c(C)c1C1=CC(C)OC(C)C1 (centres unmarked) [compound 84],< 5 nM,–
O=C(Cn1cc(-c2cnsc2)cn1)Nc1ccc(-c2cnccn2)cn1 [compound 27],5 to 100 nM,–
Cc1nn(CC(=O)Nc2ccc(-c3cccnc3)cn2)c(C)c1-c1ccnc(C(F)(F)F)c1 [compound 52],< 5 nM,–
Cc1cc(-c2cnccn2)cnc1NC(=O)Cn1nc(C)c(-c2ccnc(C(F)(F)F)c2)c1C [compound 76],> 100 nM,–
Cc1nn(C(C)C(=O)Nc2ccc(-c3cnccn3)cn2)c(C)c1C1=CCOCC1 (centres unmarked) [compound 81],< 5 nM,–
Cc1c(-c2ccnc(C(F)(F)F)c2)ncn1CC(=O)Nc1ccc(-c2cncnc2)cn1 [compound 104],< 5 nM,–
Cc1nn(CC(=O)Nc2ccc(-c3cnccn3)cn2)c(C)c1-c1ccc(N(C)C)nc1 [compound 101],5 to 100 nM,–
Cc1c(-c2ccnc(C(F)(F)F)c2)ncn1CC(=O)Nc1ccc(-c2ccnc(C#N)c2)cn1 [compound 109],5 to 100 nM,–
Cc1nn(CC(=O)Nc2ccc(-c3ccnc(C#N)c3)cn2)c(C)c1-c1ccnc(C(F)(F)F)c1 [compound 71],< 5 nM,–
COc1cc(-c2cnccn2)cnc1NC(=O)Cn1nc(C)c(-c2ccnc(C(F)(F)F)c2)c1C [compound 77],5 to 100 nM,–
Cc1nn(CC(=O)Nc2ccc(-c3cnccn3)cn2)c(C)c1-c1ccnc(N)c1 [compound 79],5 to 100 nM,–
Cc1nn(CC(=O)Nc2ccc(-c3cnccn3)cn2)c(C)c1-c1ccnc(N(C)C)c1 [compound 100],5 to 100 nM,–
O=C(Cn1cc(C2=CCOCC2)c(C(F)(F)F)n1)Nc1ccc(-c2cnccn2)cn1 [compound 88],< 5 nM,–
Cc1nn(CC(=O)Nc2ccc(-c3cncnc3)cn2)c(C)c1C1CC(C)OC(C)C1 (centres unmarked) [compound 96],5 to 100 nM,–
Cc1nn(CC(=O)Nc2ccc(-c3cnccn3)cn2)c(C)c1C1=CC(C)OC(C)C1 (centres unmarked) [compound 82],< 5 nM,–
Cc1c(-c2ccnc(C(F)(F)F)c2)ncn1CC(=O)Nc1ccc(-c2cccnc2)cn1 [compound 108],< 5 nM,–
Cc1nn(CC(=O)Nc2ccc(-c3cnccn3)cn2)c(C)c1C1CCOCC1 [compound 40],< 5 nM,–
Cc1cc(-c2cnn(CC(=O)Nc3ccc(-c4cnccn4)cn3)c2)ncn1 [compound 39],> 100 nM,–
Cc1nn(CC(=O)Nc2ccc(-c3cnccn3)cn2)c(C)c1-c1cnn(C2CC2)c1 [compound 58],5 to 100 nM,–
O=C(Cn1cc(-c2ccnn2C2CCCC2)cn1)Nc1ccc(-c2cnccn2)cn1 [compound 45],> 100 nM,–
Cc1nn(CC(=O)Nc2ccc(C3=CCOCC3)cn2)c(C)c1-c1ccnc(C(F)(F)F)c1 [compound 49],5 to 100 nM,–

Molecule,IC50 (category of IC50),IC50
Cc1nn(C(=O)C(C)(C)Nc2ccc(-c3cnccn3)cn2)c(C)c1C1=CCCOC1 [compound 83],5 to 100 nM,–
Cc1nn(CC(=O)Nc2ncc(-c3cnccn3)cc2C#N)c(C)c1-c1ccnc(C(F)(F)F)c1 [compound 80],5 to 100 nM,–
Cc1noc(C)c1-c1cnn(CC(=O)Nc2ccc(-c3cnccn3)cn2)c1 [compound 36],5 to 100 nM,–
Cc1ncc(-c2cnn(CC(=O)Nc3ccc(-c4cnccn4)cn3)c2)s1 [compound 29],> 100 nM,–
Cn1nccc1-c1csc(CC(=O)Nc2ccc(-c3cnccn3)cn2)c1 [compound 31],5 to 100 nM,–
Cc1nn(CC(=O)Nc2ccc(-c3ncccn3)cn2)c(C)c1C1=CC(C)OC(C)C1 (centres unmarked) [compound 85],5 to 100 nM,–
Cc1nn(CC(=O)Nc2ccc(-c3cncnc3)cn2)c(C)c1-c1ccnc(C(F)(F)F)c1 [compound 35],< 5 nM,0.34 nM
Cc1nn(CC(=O)Nc2ccc(-c3cnccn3)cn2)c(C)c1-c1ccnn1C1CCCC1 [compound 47],> 100 nM,–
Cc1nn(CC(=O)Nc2ccc(-c3ncccn3)cn2)c(C)c1-c1ccnc(C(F)(F)F)c1 [compound 65],< 5 nM,–
Cc1cc(-c2cn(CC(=O)Nc3ccc(-c4cnccn4)cn3)nc2C)ccn1 [compound 90],< 5 nM,–
Cc1nn(CC(=O)Nc2ccc(-c3cnccn3)cn2)c(C)c1C1=CCN(C(=O)OC(C)(C)C)CC1 [compound 46],5 to 100 nM,–
Cc1nn(CC(=O)Nc2ccc(-c3cnccn3)cn2)c(C)c1-c1ccnn1C [compound 50],5 to 100 nM,–
"tert-butyl 4-[1-[2-oxo-2-[(5-pyrazin-2-yl-2-pyridyl)amino]ethyl]pyrazol-4-yl]-3,6-dihydro-2H-pyridine-1-carboxylate [Example 16]",5 to 100 nM,–
Cc1nn(CC(=O)Nc2ccc(-c3cnccn3)cn2)cc1C1=CCOCC1 [compound 89],5 to 100 nM,–
O=C(Cn1cc(-c2ccncn2)cn1)Nc1ccc(-c2cnccn2)cn1 [compound 30],> 100 nM,–
O=C(Cn1cc(-c2ccnc(C(F)(F)F)n2)cn1)Nc1ccc(-c2cnccn2)cn1 [compound 37],< 5 nM,–
Cc1nn(CC(=O)Nc2ccc(-c3cnccn3)cn2)cc1-c1ccnc(C(F)(F)F)c1 [compound 56],< 5 nM,–
Cc1cc(-c2ncn(CC(=O)Nc3ccc(-c4cnccn4)cn3)c2C)ccn1 [compound 87],< 5 nM,–
COc1ccc(-c2c(C)nn(CC(=O)Nc3ccc(-c4cnccn4)cn3)c2C)cn1 [compound 64],5 to 100 nM,–
O=C(Cc1cc(C2=CCOCC2)cs1)Nc1ccc(-c2cnccn2)cn1 [compound 28],5 to 100 nM,–
Cc1cc(-c2cn(CC(=O)Nc3ccc(-c4cncnc4)cn3)nc2C)ccn1 [compound 91],< 5 nM,–
Cc1nn(CC(=O)Nc2ccc(-c3ccncc3)cn2)c(C)c1-c1ccnc(C(F)(F)F)c1 [compound 60],5 to 100 nM,–
Cc1nn(CC(=O)Nc2ccc(-c3cnccn3)cn2)c(C)c1C1=CCNCC1 [compound 53],> 100 nM,–
Cc1nc(-c2ccnc(C(F)(F)F)c2)c(C)n1CC(=O)Nc1ccc(-c2cnccn2)cn1 [compound 72],< 5 nM,–
